In article PMC5540273, “Progress towards a public chemogenomic set for protein kinases and a call for contributions” (PLoS ONE, 2017) one finds inhibition data, which are given here for five compounds.

What all share (experiment): KINOMEscan competition binding
One test addresses T1, ARK5 (Homo sapiens, UniProt O60285).
T1 sequence (O60285 1-661): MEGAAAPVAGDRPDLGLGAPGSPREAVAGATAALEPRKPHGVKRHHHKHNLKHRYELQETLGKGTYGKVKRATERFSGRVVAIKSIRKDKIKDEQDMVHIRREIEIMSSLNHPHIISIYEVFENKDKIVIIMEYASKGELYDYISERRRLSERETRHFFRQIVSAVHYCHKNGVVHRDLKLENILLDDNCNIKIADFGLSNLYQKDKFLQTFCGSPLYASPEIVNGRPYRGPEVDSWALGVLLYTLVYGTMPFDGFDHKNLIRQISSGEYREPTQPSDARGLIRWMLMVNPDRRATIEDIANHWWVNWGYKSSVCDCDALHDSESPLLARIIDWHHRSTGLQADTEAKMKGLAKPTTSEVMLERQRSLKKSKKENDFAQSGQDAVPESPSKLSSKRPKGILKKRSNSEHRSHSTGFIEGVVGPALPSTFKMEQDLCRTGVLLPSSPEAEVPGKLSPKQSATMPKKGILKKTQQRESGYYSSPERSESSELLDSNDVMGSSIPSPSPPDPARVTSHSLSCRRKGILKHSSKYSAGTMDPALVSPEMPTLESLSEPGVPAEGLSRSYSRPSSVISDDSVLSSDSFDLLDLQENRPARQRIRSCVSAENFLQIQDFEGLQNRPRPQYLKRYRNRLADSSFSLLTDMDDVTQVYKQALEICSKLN
The following applies: read-out: %Inh ARK5.

In another test the target is ERK3 (Homo sapiens, UniProt Q16659). The following applies: read-out: %Inh ERK3.
For another test, the target named is LYN (Homo sapiens, UniProt P07948). The following applies: read-out: %Inh LYN.
LYN, sequence (P07948 whole entry): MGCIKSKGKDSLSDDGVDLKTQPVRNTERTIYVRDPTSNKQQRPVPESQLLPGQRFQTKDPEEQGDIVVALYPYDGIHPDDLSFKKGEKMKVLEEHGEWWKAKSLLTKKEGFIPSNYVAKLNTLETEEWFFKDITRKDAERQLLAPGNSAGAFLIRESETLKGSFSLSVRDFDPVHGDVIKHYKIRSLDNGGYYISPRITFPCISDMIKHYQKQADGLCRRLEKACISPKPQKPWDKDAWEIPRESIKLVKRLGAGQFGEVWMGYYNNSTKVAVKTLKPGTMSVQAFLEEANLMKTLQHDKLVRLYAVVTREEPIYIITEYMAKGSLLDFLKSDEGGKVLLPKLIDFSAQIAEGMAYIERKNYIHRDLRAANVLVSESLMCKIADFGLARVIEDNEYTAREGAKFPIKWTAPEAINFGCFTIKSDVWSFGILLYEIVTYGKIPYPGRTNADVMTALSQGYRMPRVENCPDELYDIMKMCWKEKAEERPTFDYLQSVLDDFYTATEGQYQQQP
The target of another test is FER (Homo sapiens, UniProt P16591). The following applies: read-out: %Inh FER.
FER, sequence (P16591 whole entry): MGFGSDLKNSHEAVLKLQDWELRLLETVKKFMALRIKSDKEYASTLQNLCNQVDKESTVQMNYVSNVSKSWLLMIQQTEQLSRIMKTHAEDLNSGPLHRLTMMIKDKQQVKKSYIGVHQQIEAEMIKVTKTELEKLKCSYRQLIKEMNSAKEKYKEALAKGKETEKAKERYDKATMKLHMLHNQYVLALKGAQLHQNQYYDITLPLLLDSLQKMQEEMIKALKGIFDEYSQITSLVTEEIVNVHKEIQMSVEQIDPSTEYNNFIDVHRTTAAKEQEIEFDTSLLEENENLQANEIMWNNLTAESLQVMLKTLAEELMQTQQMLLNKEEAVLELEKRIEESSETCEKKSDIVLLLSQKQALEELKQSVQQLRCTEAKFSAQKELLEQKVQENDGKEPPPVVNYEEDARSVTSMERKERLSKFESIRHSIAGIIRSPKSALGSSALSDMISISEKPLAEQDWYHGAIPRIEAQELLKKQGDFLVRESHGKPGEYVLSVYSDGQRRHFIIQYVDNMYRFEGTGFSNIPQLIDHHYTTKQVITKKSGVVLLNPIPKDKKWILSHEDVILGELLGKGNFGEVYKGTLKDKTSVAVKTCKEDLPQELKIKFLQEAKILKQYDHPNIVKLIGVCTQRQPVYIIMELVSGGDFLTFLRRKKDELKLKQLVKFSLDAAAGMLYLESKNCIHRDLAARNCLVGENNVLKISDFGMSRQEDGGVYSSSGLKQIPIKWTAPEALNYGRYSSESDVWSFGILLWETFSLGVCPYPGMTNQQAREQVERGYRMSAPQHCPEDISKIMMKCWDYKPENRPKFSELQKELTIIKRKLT
In a further test the target is ACVRL1 (Homo sapiens, UniProt P37023). The following applies: read-out: %Inh ACVRL1.
ACVRL1, sequence (P37023 22-503): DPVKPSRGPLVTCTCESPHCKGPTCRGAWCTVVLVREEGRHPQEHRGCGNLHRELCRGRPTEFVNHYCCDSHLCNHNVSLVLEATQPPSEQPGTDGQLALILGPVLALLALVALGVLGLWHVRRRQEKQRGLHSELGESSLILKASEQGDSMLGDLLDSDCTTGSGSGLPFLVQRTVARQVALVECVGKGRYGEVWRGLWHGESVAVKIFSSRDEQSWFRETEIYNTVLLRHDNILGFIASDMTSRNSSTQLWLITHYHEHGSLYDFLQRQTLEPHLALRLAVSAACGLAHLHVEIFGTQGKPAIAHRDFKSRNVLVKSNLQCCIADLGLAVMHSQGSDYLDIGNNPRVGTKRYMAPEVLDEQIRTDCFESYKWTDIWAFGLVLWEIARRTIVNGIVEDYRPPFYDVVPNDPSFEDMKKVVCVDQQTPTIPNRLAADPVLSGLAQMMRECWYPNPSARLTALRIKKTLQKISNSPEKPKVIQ
In the next test the target is T2, IKK-epsilon (Homo sapiens, UniProt Q14164).
T2 sequence (Q14164 1-716): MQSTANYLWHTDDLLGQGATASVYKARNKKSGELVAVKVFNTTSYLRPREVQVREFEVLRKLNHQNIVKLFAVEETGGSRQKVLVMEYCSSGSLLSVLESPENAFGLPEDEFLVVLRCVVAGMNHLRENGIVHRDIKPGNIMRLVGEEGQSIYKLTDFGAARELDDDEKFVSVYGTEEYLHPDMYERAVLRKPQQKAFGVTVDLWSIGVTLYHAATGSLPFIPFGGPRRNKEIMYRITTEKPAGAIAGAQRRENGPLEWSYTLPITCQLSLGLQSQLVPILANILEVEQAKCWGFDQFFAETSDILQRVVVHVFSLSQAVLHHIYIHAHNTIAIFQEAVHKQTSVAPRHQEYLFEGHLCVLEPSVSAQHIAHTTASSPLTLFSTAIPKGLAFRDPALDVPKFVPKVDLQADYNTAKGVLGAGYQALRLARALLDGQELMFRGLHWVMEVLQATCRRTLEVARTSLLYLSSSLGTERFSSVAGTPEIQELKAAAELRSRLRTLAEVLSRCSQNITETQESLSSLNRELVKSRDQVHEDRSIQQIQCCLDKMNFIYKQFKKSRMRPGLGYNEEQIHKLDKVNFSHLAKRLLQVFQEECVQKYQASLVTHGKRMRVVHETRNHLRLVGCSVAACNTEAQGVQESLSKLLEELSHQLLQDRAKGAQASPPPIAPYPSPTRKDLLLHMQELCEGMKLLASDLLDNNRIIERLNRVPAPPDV
The following applies: read-out: %Inh IKK-epsilon.

For a further test, the target named is BMPR1B (Homo sapiens, UniProt O00238). The following applies: read-out: %Inh BMPR1B.
BMPR1B, sequence (O00238 14-502): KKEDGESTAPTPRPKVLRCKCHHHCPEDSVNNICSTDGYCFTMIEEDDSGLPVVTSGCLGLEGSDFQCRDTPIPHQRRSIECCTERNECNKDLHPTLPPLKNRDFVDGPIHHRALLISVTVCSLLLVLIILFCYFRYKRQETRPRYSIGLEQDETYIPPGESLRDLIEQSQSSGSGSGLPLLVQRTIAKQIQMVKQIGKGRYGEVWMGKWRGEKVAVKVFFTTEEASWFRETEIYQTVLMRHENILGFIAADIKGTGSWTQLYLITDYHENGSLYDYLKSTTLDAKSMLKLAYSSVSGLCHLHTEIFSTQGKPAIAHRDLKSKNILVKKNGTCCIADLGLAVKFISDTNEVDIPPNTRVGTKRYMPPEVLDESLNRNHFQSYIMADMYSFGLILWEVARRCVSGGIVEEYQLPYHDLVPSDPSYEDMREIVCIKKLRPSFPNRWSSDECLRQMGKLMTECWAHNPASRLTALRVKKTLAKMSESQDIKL
Another test deals with T3, IRAK3 (Homo sapiens, UniProt Q9Y616).
T3 sequence (Q9Y616 1-596): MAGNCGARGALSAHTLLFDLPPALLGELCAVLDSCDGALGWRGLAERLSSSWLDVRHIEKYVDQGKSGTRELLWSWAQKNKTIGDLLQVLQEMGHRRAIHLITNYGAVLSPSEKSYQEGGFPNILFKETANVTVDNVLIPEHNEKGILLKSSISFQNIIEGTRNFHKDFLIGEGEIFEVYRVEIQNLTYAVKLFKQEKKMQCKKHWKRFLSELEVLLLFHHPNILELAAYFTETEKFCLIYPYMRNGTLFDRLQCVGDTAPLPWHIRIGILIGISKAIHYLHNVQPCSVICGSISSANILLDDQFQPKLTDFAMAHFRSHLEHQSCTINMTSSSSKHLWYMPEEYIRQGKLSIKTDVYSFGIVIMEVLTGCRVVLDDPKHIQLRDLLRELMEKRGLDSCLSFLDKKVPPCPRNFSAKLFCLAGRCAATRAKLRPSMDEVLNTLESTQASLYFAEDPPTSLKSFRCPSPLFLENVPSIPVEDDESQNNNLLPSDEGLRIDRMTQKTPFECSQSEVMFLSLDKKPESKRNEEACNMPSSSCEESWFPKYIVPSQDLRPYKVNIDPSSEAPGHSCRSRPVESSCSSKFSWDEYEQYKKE
The following applies: read-out: %Inh IRAK3.

The target of another test is HPK1 (Homo sapiens, UniProt Q92918). The following applies: read-out: %Inh HPK1.
Another test concerns the target EIF2AK1 (Homo sapiens, UniProt Q9BQI3). The following applies: read-out: %Inh EIF2AK1.
The target of another test is FGFR4 (Homo sapiens, UniProt P22455). The following applies: read-out: %Inh FGFR4.
FGFR4, sequence (P22455 22-802): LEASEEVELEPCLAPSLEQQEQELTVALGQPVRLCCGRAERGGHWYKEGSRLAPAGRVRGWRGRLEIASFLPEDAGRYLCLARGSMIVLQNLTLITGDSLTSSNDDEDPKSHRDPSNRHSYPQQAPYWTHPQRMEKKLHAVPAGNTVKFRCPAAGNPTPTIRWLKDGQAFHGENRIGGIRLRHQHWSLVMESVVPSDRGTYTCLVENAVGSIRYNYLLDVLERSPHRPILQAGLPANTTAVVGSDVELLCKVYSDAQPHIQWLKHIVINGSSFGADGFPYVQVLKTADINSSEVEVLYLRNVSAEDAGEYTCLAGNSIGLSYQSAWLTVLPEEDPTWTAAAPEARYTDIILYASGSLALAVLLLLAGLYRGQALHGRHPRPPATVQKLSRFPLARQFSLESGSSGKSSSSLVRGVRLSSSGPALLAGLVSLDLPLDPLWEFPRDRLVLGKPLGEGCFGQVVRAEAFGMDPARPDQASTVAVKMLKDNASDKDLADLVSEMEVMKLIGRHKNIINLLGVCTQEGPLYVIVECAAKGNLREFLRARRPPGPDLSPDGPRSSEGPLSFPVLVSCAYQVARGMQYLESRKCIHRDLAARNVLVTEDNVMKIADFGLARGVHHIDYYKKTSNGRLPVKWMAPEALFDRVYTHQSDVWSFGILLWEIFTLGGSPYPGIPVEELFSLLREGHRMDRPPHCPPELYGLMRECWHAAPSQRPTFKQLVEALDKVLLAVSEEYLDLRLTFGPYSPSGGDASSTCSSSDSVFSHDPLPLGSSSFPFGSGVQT
In another test the target is FGFR2 (Homo sapiens, UniProt P21802). The following applies: read-out: %Inh FGFR2.
FGFR2, sequence (P21802 22-821): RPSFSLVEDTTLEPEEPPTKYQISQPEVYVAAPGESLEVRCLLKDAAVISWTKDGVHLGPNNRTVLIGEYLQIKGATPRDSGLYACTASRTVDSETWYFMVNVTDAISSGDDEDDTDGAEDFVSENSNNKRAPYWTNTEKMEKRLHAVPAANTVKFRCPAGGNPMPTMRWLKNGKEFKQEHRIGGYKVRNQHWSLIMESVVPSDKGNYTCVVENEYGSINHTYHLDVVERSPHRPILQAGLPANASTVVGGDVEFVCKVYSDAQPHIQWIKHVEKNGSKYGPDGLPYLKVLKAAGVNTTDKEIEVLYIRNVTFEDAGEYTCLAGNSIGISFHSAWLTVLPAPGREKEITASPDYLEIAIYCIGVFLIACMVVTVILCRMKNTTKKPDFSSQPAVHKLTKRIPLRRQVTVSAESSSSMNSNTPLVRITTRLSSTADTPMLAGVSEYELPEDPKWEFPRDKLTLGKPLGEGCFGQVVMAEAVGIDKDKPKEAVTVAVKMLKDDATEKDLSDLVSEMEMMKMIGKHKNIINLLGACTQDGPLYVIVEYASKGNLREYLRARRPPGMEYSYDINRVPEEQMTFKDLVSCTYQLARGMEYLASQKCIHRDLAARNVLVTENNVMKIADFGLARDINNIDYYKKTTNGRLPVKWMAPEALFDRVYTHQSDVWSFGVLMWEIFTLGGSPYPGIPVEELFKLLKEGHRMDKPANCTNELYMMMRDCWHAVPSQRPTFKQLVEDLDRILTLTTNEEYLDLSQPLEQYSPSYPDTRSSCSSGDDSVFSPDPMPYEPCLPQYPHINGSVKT
A further test deals with HIPK3 (Homo sapiens, UniProt Q9H422). The following applies: read-out: %Inh HIPK3.
For the next test, the target named is AAK1 (Homo sapiens, UniProt Q2M2I8). The following applies: read-out: %Inh AAK1.

Molecules are shown by their SMILES.

EIF2AK1, sequence (Q9BQI3 whole entry): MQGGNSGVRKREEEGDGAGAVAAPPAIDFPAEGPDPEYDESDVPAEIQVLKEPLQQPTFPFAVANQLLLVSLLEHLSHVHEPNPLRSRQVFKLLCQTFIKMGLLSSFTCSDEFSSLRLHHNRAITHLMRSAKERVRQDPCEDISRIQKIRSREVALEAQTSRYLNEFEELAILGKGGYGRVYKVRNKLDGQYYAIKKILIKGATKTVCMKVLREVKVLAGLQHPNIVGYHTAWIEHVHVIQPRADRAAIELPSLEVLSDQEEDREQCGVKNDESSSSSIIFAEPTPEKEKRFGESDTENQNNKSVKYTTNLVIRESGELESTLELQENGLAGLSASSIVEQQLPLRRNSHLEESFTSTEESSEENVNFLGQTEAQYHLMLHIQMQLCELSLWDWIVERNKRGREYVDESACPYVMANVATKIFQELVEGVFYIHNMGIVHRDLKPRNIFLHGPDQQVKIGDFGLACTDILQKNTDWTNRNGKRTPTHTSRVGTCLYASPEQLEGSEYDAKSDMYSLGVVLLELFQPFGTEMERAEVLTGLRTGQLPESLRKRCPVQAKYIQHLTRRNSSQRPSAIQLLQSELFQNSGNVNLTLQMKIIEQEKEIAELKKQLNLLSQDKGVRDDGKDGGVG

On to `O=c1cc(N2CCOCC2)nc2n(Cc3cccc(Cl)c3Cl)c(C3CC3)nn12` [UNC10225469A], for which the inhibition at 1 µM amounted to 0% on ARK5; 0% at ERK3; 0% on LYN; 3% on FER; 9% at ACVRL1; 0% at IKK-epsilon. Also, the inhibition at 1 µM at BMPR1B is 0%; on IRAK3 it was 0%; at HPK1, 14%; at EIF2AK1, 0%; at FGFR4, 0%; at FGFR2, 1%. For the same compound, the inhibition at 1 µM on HIPK3 is 16%; at AAK1 it was 14%.
`COc1cccc(OC)c1C(=O)Nc1cccc(-c2nn3ccccc3c2-c2ccnc(Nc3cccc(F)c3)n2)c1` [UNC10225310A]: the inhibition at 1 µM on ARK5 was 0%; on ERK3 it was 1%; at LYN it was 8%; at FER, 24%; on ACVRL1 it was 7%; on IKK-epsilon, 4%. The inhibition at 1 µM on BMPR1B was 21%; at IRAK3 it was 0%; on HPK1, 2%; at EIF2AK1, 0%; on FGFR4, 0%; on FGFR2, 0%. The inhibition at 1 µM at HIPK3 and on AAK1 was 0% each time.
For the compound `CS(=O)(=O)Cc1ccc(Nc2nccc(-c3c(-c4cccc(NC(=O)C5CCCCC5)c4)nn4ncccc34)n2)cc1` [UNC10225159A], the inhibition at 1 µM at ARK5 is 0%; at ERK3 it was 0%; at LYN, 16%; on FER, 8%; on ACVRL1 it was 0%; at IKK-epsilon, 32%. Further, the inhibition at 1 µM at BMPR1B was 19%; at IRAK3, 3%; on HPK1 it was 14%; on EIF2AK1 it was 22%; at FGFR4, 6%; on FGFR2 it was 41%. For the same compound, the inhibition at 1 µM on HIPK3 turned out to be 23%; at AAK1, 0%.
On to `Cc1ccc(NC(=O)Nc2cccc(C(F)(F)F)c2)cc1` [UNC10225187A], for which the inhibition at 1 µM on ARK5, on ERK3, on LYN, on FER, on ACVRL1 and at IKK-epsilon was 0% throughout. Also, the inhibition at 1 µM at BMPR1B turned out to be 0%; on IRAK3, 100%; at HPK1, 0%; at EIF2AK1, 0%; on FGFR4, 0%; on FGFR2 it was 0%. The inhibition at 1 µM on HIPK3 amounted to 0%; at AAK1, 26%.
For `Cn1cc(-c2cnc(N)c3c(-c4ccc5c(c4)CCN5C(=O)Cc4ccccc4)csc23)cn1` [UNC10225012A], the inhibition at 1 µM at ARK5 came to 3%; at ERK3 it was 0%; at LYN it was 65%; on FER it was 10%; on ACVRL1 it was 0%; at IKK-epsilon it was 59%. Moreover, the inhibition at 1 µM turned out to be 6% at BMPR1B; 5% on IRAK3; 94% at HPK1; 7% at EIF2AK1; 0% at FGFR4; 40% at FGFR2. In addition, the inhibition at 1 µM is 7% at HIPK3 and 0% on AAK1.
